In PubChem BioAssay (NCI):
“And” between values parts separate entries of the source, which are not always exact repeats. Identical values can stand only once.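 Assay format: 96-well plates, 48-hour exposure. Here, GI50 denotes the concentration required for 50% inhibition of growth. TGI denotes the concentration required for complete inhibition of growth.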

Key:
Test in all cases: inhibition of tumour cell growth, NCI panel, 48 h
NCI-H522 lung = test system: NCI-H522 lung
NCI-H23 lung = test system: NCI-H23 lung
U251 CNS = test system: U251 CNS
M14 melanoma = test system: M14 melanoma
HCC-2998 colon = test system: HCC-2998 colon
OVCAR-3 ovarian = test system: OVCAR-3 ovarian
SN12C renal = test system: SN12C renal
UO-31 renal = test system: UO-31 renal
SK-MEL-5 melanoma = test system: SK-MEL-5 melanoma
SF-539 CNS = test system: SF-539 CNS

Compound | GI50 (NCI-H522 lung) [µM] | TGI (NCI-H522 lung) | GI50 (NCI-H23 lung) [µM] | TGI (NCI-H23 lung) | GI50 (U251 CNS) [µM] | TGI (U251 CNS) | GI50 (M14 melanoma) [µM] | TGI (M14 melanoma) | GI50 (HCC-2998 colon) [µM] | TGI (HCC-2998 colon) [µM] | GI50 (OVCAR-3 ovarian) [µM] | TGI (OVCAR-3 ovarian) | GI50 (SN12C renal) [µM] | TGI (SN12C renal) | GI50 (UO-31 renal) [µM] | TGI (UO-31 renal) | GI50 (SK-MEL-5 melanoma) [µM] | TGI (SK-MEL-5 melanoma) | GI50 (SF-539 CNS) [µM] | TGI (SF-539 CNS)
CCN1CCN(c2cc(C)nc(NCc3cc(Nc4ccnc5cc(Cl)ccc45)ccc3F)n2)CC1 | 7.21 | 36 µM | 5.79 | > 100 µM | 3.28 | 12.6 µM | 1.72 | 3.4 µM | 2.59 | 31.3 | 2.94 | 11.8 µM | 4.48 | 27 µM | 1.61 | 3.89 µM | 1.55 | 2.99 µM | 1.72 | 3.42 µM
CCc1ccccc1NC(=O)C1=C(C)NC(C)=C(C(=O)Nc2ccccc2CC)C1c1ccc(NC(C)=O)cc1 | – | 71.1 µM | – | > 100 µM | – | > 100 µM | – | > 100 µM | – | 48.6 | – | > 100 µM | – | > 100 µM | – | > 100 µM | – | > 100 µM | – | 68 µM
C=CC1=C(C)C(Cc2[nH]c(/C=c3\[nH]/c(=C/C4=NC(=O)C(C)/C4=C\C)c(C)c3CCC(=O)O)c(CCC(=O)OC)c2C)NC1=O (stereo not given) | 17.7 | 32 µM | 28.3 | 53.6 µM | 22.5 | 52.9 µM | 28.3 | 89.5 µM | 26.7 | 67.1 | 20.1 | 39.4 µM | 22.2 | 44.6 µM | 18.9 | 36.1 µM | 19.9 | 37.4 µM | 25.1 | 54.4 µM
CN1CCN(c2ccc([N+](=O)[O-])c3no[n+]([O-])c23)CC1 | 0.115 | 0.507 µM and 0.26 µM | 0.173 | 0.389 µM and 1.02 µM | 0.189 | 1.41 µM and 0.618 µM | 0.177 | 1.7 µM and 0.927 µM | 1.32 | 2.73 | 0.241 | 1.29 µM and 0.753 µM | 0.357 | 1.29 µM and 1.37 µM | 0.189 | 1.88 µM and 1.14 µM | 1.04 | 2.91 µM and 2.51 µM | 0.246 | 0.722 µM and 0.733 µM
C=C(C)C(=O)N1c2ccc(OC)cc2CC1C(=O)OCC (stereo not given) | – | > 100 µM | – | > 100 µM | – | > 100 µM | – | > 100 µM | – | > 100 | – | > 100 µM | – | > 100 µM | – | > 100 µM | – | > 100 µM | – | > 100 µM
O=C1C(Cl)=C(Nc2ccc3c(c2NC2=C(Cl)C(=O)c4ccccc4C2=O)C(=O)c2ccccc2C3=O)C(=O)c2ccccc21 | 2.48 | 8.7 µM | 1.08 | 4.1 µM | 2.58 | 9.38 µM | 1.02 | 2.29 µM | 3.26 | 10.7 | 1.78 | 7.03 µM | 1.73 | 4.46 µM | 1.75 | 9.01 µM | 0.386 | 1.47 µM | 2.83 | 8.07 µM
CN(C)CCN1C(=O)c2cccc3c(-c4ccc5ncn(C6CCCCC6)c5c4)ccc(c23)C1=O | 1.85 | 5.24 µM | 1.35 | 3.82 µM | 2 | 11.5 µM | 1.7 | 3.61 µM | 1.82 | 4.3 | 2.28 | 8.78 µM | 1.03 | 12.1 µM | 1.06 | 2.4 µM | 1.44 | 2.85 µM | 2.19 | 9.03 µM
CC(C)c1ccc(O)c(O)c(=O)c1 (tested in a mixture with another compound) | – | 17.5 µM | – | > 26.3 µM | – | 4.98 µM | – | 15.5 µM | – | 4.04 | – | > 100 µM | – | > 100 µM | – | > 41.2 µM | – | 8.13 µM | – | > 21.1 µM
Cc1cccc2cc3ccc4ccccc4c3cc12 | – | 95.5 µM | – | > 100 µM | – | > 100 µM | – | > 100 µM | – | 46.7 | – | > 100 µM | – | > 100 µM | – | > 100 µM | – | 52.6 µM | – | > 100 µM
CCOC(=O)c1cn2ncnc(Oc3ccc(NC(=O)NCCN(CC)CC)c(Cl)c3)c2c1C | 2.3 | 5.92 µM | 10.4 | 26 µM | 2.38 | 6.24 µM | 1.89 | 3.75 µM | 2.01 | 4.68 | 8.12 | 35.8 µM | 3.34 | 13.3 µM | 1.55 | 3.19 µM | 1.81 | 3.3 µM | 1.76 | 3.45 µM
